Key:
[1] = test system: 4T1 tumors; experiment: Wild-type or cGAS-knockout orthotopic 4T1 tumors treated intratumorally with ADU-S100; assay type: in vivo, mouse; conditions: ADU-S100 10 μg intratumorally, cGAS KO vs wild-type
Method: Methods. Briefly, wild-type or cGAS-knockout 4T1 tumors were orthotopically transplanted in the mammary fat pad of BALB/c immune competent mice. cGAS was knocked out using CRISPR-Cas9. The mice were treated intratumorally with PBS (vehicle) or the STING agonist, ADU-S100 (10 μg).

[2] = test system: CT26 cells; experiment: Tail vein inoculation of CT26 cells in BALB/c mice, metastasis and survival; assay type: in vivo, mouse; conditions: CT26, BALB/c, IP, vs vehicle
Method: Animal metastasis studies: Animal experiments were performed in accordance with protocols approved by the MSKCC Institutional Animal Care and Use Committee. […] There was no need to randomize animals. Investigators were not blinded to group allocation. For tail vein injections, 5×10^4 4T1, 2.5×10^4 B16F10, or 10^5 CT26 cells were injected into the tail vein of 6-7-week old BALB/c (4T1 and CT26) or C57BL/6 (B16F10) mice. Metastasis was primarily assessed through overall survival. Overall survival endpoint was met when the mice died or met the criteria for euthanasia under the IACUC protocol. Animals were censored when death was confirmed to have occurred due to metastasis-unrelated causes such as injury or death during injection, surgery, or anesthesia. Surface lung metastases were assessed at endpoint by direct visual examination after euthanasia at which points lungs were perfused and fixed in 4% paraformaldehyde (4T1 and B16F10 experiments) or stained using India-ink (CT26 experiments). […] H-151 was reconstituted in DMSO with concentration of 100 mM. Each mouse was injected intraperitoneally with 7.5 μL of H-151 stock solution in 200 μL of PBS with 0.1% Tween −80.

[3] = test system: 4T1 cells; experiment: Wound migration of control, Cgas-KO and Enpp1-KO 4T1 cells; assay type: cell-based, mouse; conditions: cGAMP 5.5 μm
Method: Cellular growth and migration assays: Cellular proliferation rates were assessed by seeding 5×10^4 control or Enpp1-KO 4T1 cells in 6-well plates (3-4 replicates per condition). Cells were seeded in the regular RPMI medium with 10% Fetal bovine serum (FBS). About 48 hours before cells growing to form a 90% confluency monolayer, regular media were replaced with media containing indicated drugs. […] Fresh medium was changed every 12 hours. When reaching ˜90% confluency, cells were treated with RPMI medium containing 10 μm Mitomycin C for 1 hour. Wounds were formed using sterile P200 pipette tips. Images of the wounds were captured every 8 hours and were analyzed with a wound healing tool macro in ImageJ (dev.mri.cnrs.fr/projects/imagej-macros/wiki/Wound_Healing_Tool).
Through its ability to bind extracellular adenosine receptors in both tumor and immune cells, adenosine promotes cancer cell migration and is a potent immune suppressor, respectively (FIG. 12B).

[4] = test system: 4T1 cells; experiment: Fluorescence-based indirect adenosine measurement after exogenous cGAMP; assay type: cell-based, mouse; conditions: with and without EHNA
[5] = test system: 4T1 cells; experiment: Ifnb1 and ISG expression in transfected 4T1 cells (qPCR); assay type: cell-based, mouse
Method: Quantitative PCR for STING inhibition study: RNA was extracted from cells with Trizol (Invitrogen, Carlsbad, CA, #15596026). cDNA was synthesized using the RNA to cDNA EcoDry™ Premix (Double Primed) kit (Takara #639549). Real-time PCR was performed to measure the relative mRNA expression levels of ISGs and the control GAPDH using Luna® Universal qPCR Master Mix (NEB, IPSWICH, MA, M3003L). The qPCR reaction and analysis were performed on a QuantStudio 6 platform (Life technology, Carlsbad, CA). The sequence of primers for Ccl5 is 5′-[…]-3′ and 5′-[…]-3′. The sequence of primers for Cxcl10 is 5′-[…]-3′ and 5′-[…]-3′, The sequence of primers for Isg15 is 5-A AAGAA-[…]-3′ and 5′-[…]-3′. The sequence for primers for Gapdh is 5′-[…]-3′ and 5′-[…]-3′.
Despite constitutive cGAS-STING activation, 4T1 cells had low baseline expression of Ifnb1 and other ISGs. […] Similar to our in vitro findings, control, cGAS-KO, and STING-KO tumors had low basal—and nearly undetectable—levels of IFN-β, when compared to those observed during active anti-tumor immune responses arising from immune checkpoint blockade of a responsive tumor model used as a reference control (FIG. 6D).

Nc1ncnc2c1ncn2[C@@H]1O[C@@H]2COP(=O)([S-])O[C@@H]3[C@H](O)[C@@H](COP([O-])(=S)O[C@H]2[C@H]1O)O[C@H]3n1cnc2c(N)ncnc21.[Na+].[Na+] (stereo partly shown) [ADU-S100]
tumor sensitivity (tumor volume over time) [1]: most sensitive condition

CCc1ccc(NC(=O)Nc2c[nH]c3ccccc23)cc1 [H-151]
survival of tumor bearing mice [2]: significant prolongation in overall survival

Nc1nc2c(ncn2[C@@H]2O[C@@H]3COP(=O)(O)O[C@H]4[C@@H](O)[C@H](n5cnc6c(N)ncnc65)O[C@@H]4COP(=O)(O)O[C@@H]2[C@@H]3O)c(=O)[nH]1 [cGAMP, 2′3′-cGAMP]
rescue of cancer cell migration by exogenous cGAMP [3]: rescued migration only in Cgas-KO but not Enpp1-KO tumor cells
H2O2 production after addition of exogenous cGAMP [4]: concentration-dependent increase
increase in ISG expression upon transfection [5]: ~2 fold
induction in Ifnb1 upon transfection [5]: no induction

Poly(I.C)
induction of ISGs upon transfection [5]: robust induction of ISGs
